Reference: ChEMBL document CHEMBL4402552, “The Discovery of 7-Methyl-2-[(7-methyl[1,2,4]triazolo[1,5-a]pyridin-6-yl)amino]-9-(tetrahydro-2H-pyran-4-yl)-7,9-dihydro-8H-purin-8-one (AZD7648), a Potent and Selective DNA-Dependent Protein Kinase (DNA-PK) Inhibitor” (J Med Chem, 2020)
Values after ≈ are worked out from the molar mass of the structure shown.

What was measured:
[1] = Drug level in mouse hepatocytes treated with 9-(trans-4-Hydroxycyclohexyl)-2-[(4-methoxy-2-methylphenyl)amino]-7-methyl-7,9-dihydro-8H-purin-8-one assessed as compound formation at 5 uM measured after 60 mins by UV-MS analysis; format: ADME, cell-based, Hepatocyte; conditions: 1 h
[2] = Drug level in rat hepatocytes treated with 9-(trans-4-Hydroxycyclohexyl)-2-[(4-methoxy-2-methylphenyl)amino]-7-methyl-7,9-dihydro-8H-purin-8-one assessed as compound formation at 5 uM measured after 60 mins by UV-MS analysis; format: ADME, cell-based, Hepatocyte; conditions: 1 h
[3] = physchem; conditions: buffer, pH 7.4
[4] = Apparent permeability across apical to basolateral side in human Caco2 cells in absence of efflux inhibitor by ABBA assay; format: ADME, cell-based; conditions: Caco-2
[5] = Intrinsic clearance in human microsomes; format: ADME, Microsome
[6] = Dissociation constant, pKa of the compound; format: physicochemical
[7] = Drug metabolism in rat hepatocytes assessed as dealkylation at 5 uM measured after 60 mins by UV-MS analysis; format: ADME, cell-based, Hepatocyte; conditions: 1 h
[8] = Drug metabolism in rat hepatocytes assessed as dealkylation and oxidation by measuring iminoquinone formation at 5 uM measured after 60 mins by UV-MS analysis; format: ADME, cell-based, Hepatocyte; conditions: 1 h
[9] = Drug metabolism in mouse hepatocytes assessed as dealkylation and oxidation by measuring iminoquinone formation at 5 uM measured after 60 mins by UV-MS analysis; format: ADME, cell-based, Hepatocyte; conditions: 1 h
[10] = Drug metabolism in mouse hepatocytes assessed as dealkylation at 5 uM measured after 60 mins by UV-MS analysis; format: ADME, cell-based, Hepatocyte; conditions: 1 h
[11] = Drug metabolism in human hepatocytes assessed as dealkylation at 5 uM measured after 60 mins by UV-MS analysis; format: ADME, cell-based, Hepatocyte; conditions: 1 h
[12] = Oral bioavailability in Beagle dog at 2 mg/kg; format: ADME, organism-based, Canis lupus familiaris; conditions: in vivo
[13] = Free plasma concentration in SCID mouse at 100 mg/kg, po qd measured after 10 hrs; format: ADME, organism-based; conditions: in vivo
[14] = Solubility of the compound in fasted state simulated intestinal fluid using crystalline sample; format: physicochemical
[15] = Cmax in ATM knock out human FADU cells xenografted SCID mouse at 100 mg/kg, po qd measured after 2 hrs; format: ADME, organism-based; conditions: in vivo, read-out: T>IC50
[16] = Solubility of the compound in simulated gastric fluid using crystalline sample; format: physicochemical
[17] = Oral bioavailability in Han Wistar rat at 5 mg/kg; format: ADME, organism-based; conditions: in vivo
[18] = Volume of distribution at steady state in Beagle dog at 1 mg/kg, iv or 2 mg/kg, po; format: ADME, organism-based, Canis lupus familiaris; conditions: in vivo, read-out: Vdss
[19] = Time at which plasma concentration stays above in vitro IC50 for inhibition of DNA-PK in human A549 cells in SCID mouse at 100 mg/kg, po qd; format: organism-based; conditions: in vivo
[20] = Volume of distribution at steady state in Han Wistar rat at 2 mg/kg, iv or 5 mg/kg, po; format: ADME, organism-based; conditions: in vivo, read-out: Vdss

logD [3]	Papp A→B [4]	also measured	SMILES
–	–	Drug uptake [1]: Metabolite_Detected; Drug uptake [2]: Metabolite_Detected	NC1=C(C(=O)c2ccccc2)/C(=N/c2ccccc2C(=O)c2ccccc2)C=CC1=O
4.1	–	–	COc1ccc(Nc2ncc3c(n2)n(C2CCCCC2)c(=O)n3C)c(C)c1
1.3	0.4 ×10⁻⁶ cm/s	–	Cc1cc2ncnn2cc1Nc1ncc2c(n1)n([C@H]1CC[C@H](O)CC1)c(=O)n2C
2.5	–	–	Cc1ccccc1Nc1ncc2c(n1)n([C@H]1CC[C@H](O)CC1)c(=O)n2C
2	23 ×10⁻⁶ cm/s	microsomal CLint [5]: 68 µL/min/mg	Cc1cc2ncnn2cc1Nc1ncc2c(n1)n(C1CCC(F)(F)CC1)c(=O)n2C
2.8	–	–	COc1ccc(Nc2ncc3c(n2)n(-c2ccccc2)c(=O)n3C)c(C)c1
2.4	–	–	Cn1c(=O)n([C@H]2CC[C@H](O)CC2)c2nc(Nc3ccccc3)ncc21
2.3	–	–	COc1ccc(Nc2ncc3[nH]c(=O)n([C@H]4CC[C@H](O)CC4)c3n2)c(C)c1
2.3	–	–	COc1ccc(Nc2ncc3c(n2)n([C@H]2CC[C@H](O)CC2)c(=O)n3C)cc1
2.6	–	–	COc1ccc(C)c(Nc2ncc3c(n2)n([C@H]2CC[C@H](O)CC2)c(=O)n3C)c1
–	11 ×10⁻⁶ cm/s	pKa [6]: 7.1	Cc1cc2nccn2cc1Nc1ncc2c(n1)n(C1CCOCC1)c(=O)n2C
3.7	–	–	COc1ccc(Nc2ncc3c(n2)n(C2CCCC2)c(=O)n3C)c(C)c1
1.9	24 ×10⁻⁶ cm/s	pKa [6]: 3.6	Cc1cc2ncnn2cc1Nc1ncc2c(n1)n([C@H]1CC[C@@](C)(O)CC1)c(=O)n2C
1.2	–	–	Cc1c(Nc2ncc3c(n2)n([C@H]2CC[C@H](O)CC2)c(=O)n3C)ccc2nccn12
1.8	–	–	Cn1c(=O)n([C@H]2CC[C@H](O)CC2)c2nc(Nc3ccc4nccn4c3)ncc21
1.4	0.4 ×10⁻⁶ cm/s	–	Cc1cc2nccn2cc1Nc1ncc2c(n1)n([C@H]1CC[C@H](O)CC1)c(=O)n2C
2.3	–	Drug metabolism [7]: Metabolite_Detected; Drug metabolism [8]: Metabolite_Detected; Drug metabolism [9]: Metabolite_Detected; microsomal CLint [5]: 49 µL/min/mg; Drug metabolism [10]: Metabolite_Detected; Drug metabolism [11]: Metabolite_Detected	COc1ccc(Nc2ncc3c(n2)n([C@H]2CC[C@H](O)CC2)c(=O)n3C)c(C)c1
3.1	24 ×10⁻⁶ cm/s	microsomal CLint [5]: 93 µL/min/mg	Cc1cc2ncnn2cc1Nc1ncc2c(n1)n(C1CCCCC1)c(=O)n2C
1.1	0.7 ×10⁻⁶ cm/s	–	Cc1cc2ncnn2cc1Nc1ncc2c(n1)n([C@H]1CC[C@](C)(O)CC1)c(=O)n2C
1.7	–	–	Cn1c(=O)n([C@H]2CC[C@H](O)CC2)c2nc(Nc3ccc4ncnn4c3)ncc21
1.3	22 ×10⁻⁶ cm/s	bioavailability [12]: 93%; Cp(f) [13]: > 1 µM; solubility thermodynamic [14]: 180 µM (≈ 68.5 µg/mL); Cmax [15]: 17 µM; solubility thermodynamic [16]: > 10000 µM; bioavailability [17]: 104%; pKa [6]: 3.4; Vd [18]: 0.7 L/kg; Time [19]: > 12 h; Vd [20]: 1.4 L/kg	Cc1cc2ncnn2cc1Nc1ncc2c(n1)n(C1CCOCC1)c(=O)n2C [AZD-7648]
